This is an account of results in US20110124657A1, “METHOD FOR SCREENING OF 5HT7 RECEPTOR LIGANDS BASED ON A NEW PHARMACOPHORE MODEL AND A DESCRIPTOR'S PROFILE FILTER” (LABORATORIOS DEL DR. ESTEVE, S.A., priority 2008, published 2011).

For orientation: IC50 means the midpoint of a concentration-inhibition curve.

Like-named read-outs stand apart in the source and are kept apart here.

This experiment has as its target T1, Cloned Human Serotonin Receptor, Subtype 7 (h5HT7), expressed in CHO cells (Homo sapiens, UniProt P34969).
T1 construct: purchased PerkinElmer 6120512; host or cells: CHO cells (membranes coated on FlashPlate)
The experiment is described as follows: Radioligand binding, [125I]LSD, Flashplate. Conditions: for inhibition at 1 µM: read-out: %-Inhib. (10^−6 M). On the procedure:
Radioligand binding assays were performed using the Cloned Human Serotonin Receptor, Subtype 7 (h5HT7), expressed in CHO cells, coated on Flashplate (Basic FlashPlate Cat.: SMP200) from PerkinElmer (Cat.: 6120512). The protocol assay was essentially the recommended protocol in the Technical Data Sheet by PerkinEmer Life and Analytical Sciences. The Mass membrane protein/well was typically 12 μg and the Receptor/well was about 9-10 fmoles. The Flashplate were let equilibrate at room temperature for one hour before the addition of the components of the assay mixture. The binding buffer was: 50 mM Tris-HCl, pH 7.4, containing 10 mM MgCl2, 0.5 mM EDTA and 0.5% BSA. The radioligand was [^125I]LSD at a final concentration of 0.82 nM. Nonspecific binding was determined with 50 μM of Clozapine. The assay volume was 25 μl. TopSeal-A were applied onto Flashplate microplates and they were incubated at room temperature for 240 minutes in darkness. The radioactivity were quantified by liquid scintillation spectrophotometry (Wallac 1450 Microbeta Trilux) with a count delay of 4 minutes prior to counting and a counting time of 30 seconds per well. Competition binding data were analyzed by using the LIGAND program (Munson and Rodbard, LIGAND: A versatile, computerized approach for characterization of ligand-binding systems. Anal. Biochem. 107: 220-239, 1980) and assays were performed in triplicate determinations for each point.

Where [1] appears, read: radioligand [125I]LSD 0.82 nM, triplicate determinations, read-out: IC50.
Where [2] appears, read: compound at 10^−6 M, radioligand [125I]LSD 0.82 nM.

T1 sequence (P34969 whole entry): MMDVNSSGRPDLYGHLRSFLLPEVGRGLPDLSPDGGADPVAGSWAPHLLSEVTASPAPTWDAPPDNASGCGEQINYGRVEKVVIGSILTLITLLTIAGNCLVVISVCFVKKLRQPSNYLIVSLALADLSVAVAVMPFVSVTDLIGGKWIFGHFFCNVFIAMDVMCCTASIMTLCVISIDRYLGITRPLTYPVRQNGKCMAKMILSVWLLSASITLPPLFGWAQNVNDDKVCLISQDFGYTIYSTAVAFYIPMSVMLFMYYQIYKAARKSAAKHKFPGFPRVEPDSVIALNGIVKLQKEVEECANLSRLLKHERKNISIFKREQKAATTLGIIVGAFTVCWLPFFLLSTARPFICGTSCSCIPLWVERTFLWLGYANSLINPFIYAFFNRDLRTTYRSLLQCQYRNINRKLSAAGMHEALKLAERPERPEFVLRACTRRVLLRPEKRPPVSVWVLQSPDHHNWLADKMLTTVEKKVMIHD

Take `O=c1[nH]c2ccccc2n1C1=CCN(CCCOc2ccccc2)CC1` [1-(1-(3-phenoxypropyl)-1,2,3,6-tetrahydropyridin-4-yl)-1H-benzo[d]imidazol-2(3H)-one]: the inhibition at 1 µM came out at 67.6%. Besides, under setting [1], the IC50 stood at 1.26 µM.
For `O=C(c1cccs1)C1CN2CCC1CC2` (stereo not drawn) [quinuclidin-3-yl(thiophen-2-yl)methanone], the IC50 was found to be 0.983 µM and the inhibition at 1 µM stood at 52.1%.
Take `O=c1[nH]c2ccccc2n1C1CCN(CCOc2ccccc2)CC1` [1-(1-(2-phenoxyethyl)piperidin-4-yl)-1H-benzo[d]imidazol-2(3H)-one]: the inhibition at 1 µM under setting [2] was determined as 76.1%. Besides, the IC50 under setting [1] was 0.236 µM.
For the molecule `CN(C)S(=O)(=O)c1ccc2[nH]cc(CCN)c2c1` [3-(2-aminoethyl)-N,N-dimethyl-1H-indole-5-sulfonamide], the inhibition at 1 µM amounted to 84.3%. The 50% inhibitory concentration (IC50) under setting [1] amounted to 0.173 µM.
As to `CC(C)Oc1ccccc1N1CCN(Cc2ccc(Cl)nc2)CC1` [1-((6-chloropyridin-3-yl)methyl)-4-(2-isopropoxyphenyl)piperazine], the inhibition at 1 µM under setting [2] was 82.5%.
With `COc1ccccc1N1CCN(CCC(O)c2ccccc2)CC1` (stereo not drawn) [3-(4-(2-methoxyphenyl)piperazin-1-yl)-1-phenylpropan-1-ol], under setting [2], the inhibition at 1 µM amounted to 78.5%. Further, the IC50 under setting [1] was 0.139 µM.
With `CCOc1ccccc1N1CCN(Cc2c[nH]c3ccccc23)CC1` [3-((4-(2-ethoxyphenyl)piperazin-1-yl)methyl)-1H-indole], the IC50 turned out to be 0.44 µM and the inhibition at 1 µM is 70%.
For `COc1ccc(C(C)C)cc1CN1CCN(c2cccc3[nH]ccc23)CC1` [4-(4-(5-isopropyl-2-methoxybenzyl)piperazin-1-yl)-1H-indole], the IC50 is 0.0287 µM and the inhibition at 1 µM came out at 76.6%.
As for `O=c1[nH]c2ccccc2n1C1=CCN(CCOc2ccccc2)CC1` [1-(1-(2-phenoxyethyl)-1,2,3,6-tetrahydropyridin-4-yl)-1H-benzo[d]imidazol-2(3H)-one], the inhibition at 1 µM under setting [2] is 85.3%. The IC50 under setting [1] amounted to 0.314 µM.
In the same order, the values of `COc1ccccc1N1CCN(CCC(=O)Nc2ccc3c(c2)CCC3)CC1` [N-(2,3-dihydro-1H-inden-5-yl)-3-(4-(2-methoxyphenyl)piperazin-1-yl)propanamide] are 65.7% and 1.39 µM.
Take `CC(C)Oc1ccccc1N1CCN(Cc2ccc(-n3ccnc3)cc2)CC1` [1-(4-(1H-imidazol-1-yl)benzyl)-4-(2-isopropoxyphenyl)piperazine]: the inhibition at 1 µM turned out to be 74.3%. In addition, the IC50 under setting [1] is 0.278 µM.
